In patent US20220388962A1 (Biohaven Therapeutics Ltd., priority 2019, published 2022):
Counter-ions that a name gives are not always drawn.

Molecular target: TDP-43 (Homo sapiens, UniProt Q13148)
Test: TDP-43-DNA alpha-screen assay (bt-TAR-32 displacement)
Assay type: binding
Details: bt-TAR-32 0.125 nM, 15 ng/ml TDP-43
Description: Alpha-screen assay: Displacement of bt-TG6 binding was measured using AlphaScreen technology as previously described (Cassel, J. A. et al., Journal of Biomolecular Screening, 2010, 15, 1099-1106; Cassel, J. A.; Reitz, A. B. et al. The effects of small molecule inhibitors of nucleic acid binding to TDP-43 on TDP-43 metabolism and function. Biochimie, 2012, 94, 1974-1981).
Test compounds were diluted in assay buffer (25 mM Tris [pH 7.4], 0.1% bovine serum albumin [BSA], 0.1% Triton X-100) at 4× the desired final concentration. Dilutions of test compound (50 to 0.02 μM in half-log dilutions with a no compound control well) were pre-incubated with TDP-43 (5 μl of 60 ng/mL) pre-bound to AlphaScreen® anti-GST acceptor beads (5 μl of 40 μg/mL) in 15 μl volume for 30 minutes at 23° C. with shaking. Assays were initiated by the addition of 5 μl bt-TAR-32 (5′-CTGCTTTTTGCCTGTACTGGGTCTCTGTGGTT-3′) 0.5 nM pre-bound to AlphaScreen® strepavidin donor beads (40 μg/mL). After incubation in the dark at 23° C. for 90 minutes with shaking, the AlphaScreen® signal was measured on a Synergy 2 plate reader (BioTek, Winooski, Vt.). IC50 values were determined from nonlinear regression fits of the data to a Sigmoidal dose response variable slope model in GraphPad Prism. Final assay conditions are 25 mM Tris [pH 7.4], 0.1% bovine serum albumin [BSA], 0.100 Triton X-100, 15 ng/ml TDP-43, 0.125 nM bTAR32, 10 ug/ml […].

TDP-43, sequence (Q13148 whole entry): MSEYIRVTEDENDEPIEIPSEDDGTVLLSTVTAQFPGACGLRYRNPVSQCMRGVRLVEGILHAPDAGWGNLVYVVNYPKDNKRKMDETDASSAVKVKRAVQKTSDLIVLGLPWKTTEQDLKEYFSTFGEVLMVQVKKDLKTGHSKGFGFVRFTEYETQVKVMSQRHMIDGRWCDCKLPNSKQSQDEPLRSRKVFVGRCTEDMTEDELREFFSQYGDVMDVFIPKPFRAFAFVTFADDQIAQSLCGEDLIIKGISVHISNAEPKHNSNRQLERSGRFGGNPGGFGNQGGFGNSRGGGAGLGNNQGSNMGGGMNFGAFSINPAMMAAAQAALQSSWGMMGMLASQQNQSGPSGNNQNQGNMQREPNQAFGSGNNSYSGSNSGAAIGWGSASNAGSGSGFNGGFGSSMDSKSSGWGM

Structure (SMILES)	IC50 [nM]
COc1ccc(-c2cc(NCCCNC3CCC4CN(Cc5ccccc5)CC43)c3ccccc3n2)cc1 (stereo not drawn) [Example 70, N^1-(2-Benzyloctahydrocyclopenta[c]pyrrol-4-yl)-N^3-(2-(4-methoxyphenyl)quinolin-4-yl)propane-1,3-diamine trihydrochloride]	170
NCCCNc1cc(-c2cnn(C3CCNCC3)c2)nc2ccccc12 [Example 96]	120
COc1ccc(-c2cc(NCCCNCCc3ccccn3)c3ccccc3n2)cc1 [Example 54, N^1-(2-(4-methoxyphenyl)quinolin-4-yl)-N^3-(2-(pyridin-2-yl)ethyl)propane-1,3-diamine hydrochloride]	1920
COc1cc2nc(-c3ccc(N4CCNCC4)cc3)cc(N[C@H]3CC[C@H](N)CC3)c2cc1OC [Example 81, (1R,4R)—N^1-(6,7-dimethoxy-2-(4-(piperazin-1-yl)phenyl)quinolin-4-yl)cyclohexane-1,4-diamine]	30
COc1ccc(-c2cc(NCCCNCCC3CCCCN3)c3ccccc3n2)cc1 (stereo not drawn) [Example 45, N^1-(2-(4-methoxyphenyl)quinolin-4-yl)-N^3-(2-(piperidin-2-yl)ethyl)propane-1,3-diamine]	710
COc1ccc(-c2cc(NCCCN(C)CC3CCN(C(=O)OC(C)(C)C)CC3)c3ccccc3n2)cc1 [Example 47, tert-Butyl 4-{[(3-{[2-(4-methoxyphenyl)quinolin-4-yl]amino}propyl)(methyl)amino]methyl}piperidine-1-carboxylate]	4050
COc1ccc(-c2cc(NCCCN3CCOCC3)c3ccccc3n2)cc1 [Example 76, 2-(4-Methoxyphenyl)-N-(3-morpholinopropyl)quinolin-4-amine]	6280
COc1ccc(-c2cc(NCCCNc3ccc(N4CCCCC4)cc3)c3ccccc3n2)cc1 [Example 55, N^1-(2-(4-Methoxyphenyl)quinolin-4-yl)-N^3-(4-(piperidin-1-yl)phenyl) propane-1,3-diamine dihydrochloride]	970
COc1ccc(-c2cc(N[C@H]3CC[C@H](N)CC3)c3cc(OC)c(OC)cc3n2)cc1 [Example 101]	170
COc1ccc(-c2cc(NCCCN(CCCN)C(C)=O)c3ccccc3n2)cc1 [Example 16, N-(3-(2-(4-Methoxyphenyl)quinolin-4-ylamino)propyl)-N-(3-aminopropyl) acetamide]	1420
NCCCNc1cc(-c2ccc(N3CCNCC3)cc2)nc2ccccc12 [Example 86]	50
NCCCNc1cc(-c2ccc(-n3cc4c(n3)CNC4)cc2)nc2ccccc12 [Example 84, N^1-(2-(4-(5,6-dihydropyrrolo[3,4-c]pyrazol-2(4H)-yl)phenyl)quinolin-4-yl)propane-1,3-diamine]	40
COc1ccc(-c2cc(NCCCN(C)CCCN)c3cc(OC)c(OC)cc3n2)cc1 [Example 94]	100
COc1ccc(-c2cc(NCCCNCCCO)c3ccccc3n2)cc1 [Example 14, 3-((3-((2-(4-Methoxyphenyl)quinolin-4-yl)amino)propyl)amino)-propan-1-ol]	900
COc1ccc(-c2cc(NCCCN3CCC(CO)CC3)c3ccccc3n2)cc1 [Example 51, (1-(3-((2-(4-Methoxyphenyl)quinolin-4-yl)amino)propyl)piperidin-4-yl) methanol]	1490
COc1ccc(-c2cc(NCCC(=O)N(C)C)c3ccccc3n2)cc1 [Example 138]	52600
COc1ccc(-c2cc(NC3CCC(F)(F)CC3)c3ccccc3n2)cc1 [Example 141]	64500
COc1ccc(-c2cc(NCCCN(CC3CCN(C(=O)OC(C)(C)C)CC3)CC3CCN(C(=O)OC(C)(C)C)CC3)c3ccccc3n2)cc1 [Example 58, tert-Butyl 4-{[({1-[(tert-butoxy)carbonyl]piperidin-4-yl}methyl)(3-{[2-(4-methoxyphenyl)-quinolin-4-yl]amino}propyl)amino]methyl}piperidine-1-carboxylate]	26700
COc1ccc(-c2cc(NC3CCN(CCCN4C(=O)c5ccccc5C4=O)CC3)c3ccccc3n2)cc1 [Example 64, 2-(3-(4-((2-(4-Methoxyphenyl)quinolin-4-yl)amino)piperidin-1-yl)propyl) isoindoline-1,3-dione dihydrochloride]	3600
COc1ccc(-c2cc(NCCCNCCCNc3ccncc3)c3ccccc3n2)cc1 [Example 63, N^1-(2-(4-methoxyphenyl)quinolin-4-yl)-N^3-(3-(pyridin-4-ylamino)propyl)propane-1,3-diamine dihydrochloride]	100
COc1cc2nc(-c3ccc(N4CCNCC4)cc3)cc(N[C@H]3CC[C@@H](N)CC3)c2cc1OC [Example 85]	40
CC(C)C(N)C(=O)NC(C(=O)NC(C(=O)N1CCN(c2ccc(-c3cc(NCCCN(C)C)c4ccccc4n3)cc2)CC1)C(C)C)C(C)C (stereo not drawn) [Example 106]	240
CN(C)CCCNc1cc(-c2cccc(N3CCNCC3)c2)nc2ccccc12 [Example 98]	140
CN(CCCN)CCCNc1cc(-c2cccc(N3CCNCC3)c2)nc2ccccc12 [Example 88]	60

Results, then the molecule that gave them:

IC50 [nM]	Structure (SMILES)
2080	COc1ccc(-c2cc(NCCCN3CC4CN(C(=O)OC(C)(C)C)CC4C3)c3ccccc3n2)cc1 (stereo not drawn) [Example 27, tert-butyl 5-(3-((2-(4-methoxyphenyl)quinolin-4-yl)amino)propyl)hexahydro-pyrrolo[3,4-c]pyrrole-2(1H)-carboxylate]
800	COCCCNCCCNc1cc(-c2ccc(OC)cc2)nc2ccccc12 [Example 15, N-(3-(3-methoxypropylamino)propyl)-2-(4-methoxyphenyl)quinolin-4-amine]
100	COc1ccc(-c2cc(NCCCN(CC3CCNCC3)CC3CCNCC3)c3ccccc3n2)cc1 [Example 59, N-(3-(Bis((piperidin-4-yl)methyl)amino)propyl)-2-(4-methoxyphenyl) quinolin-4-amine]
7200	COc1ccc(-c2cc(NCCCNS(=O)(=O)c3ccc(-c4nn[nH]n4)cc3)c3ccccc3n2)cc1 [Example 49, N-(3-((2-(4-Methoxyphenyl)quinolin-4-yl)amino)propyl)-4-(2H-tetrazol-5-yl)benzene sulfonamide]
90	CN1CCC(n2cc(-c3cc(NCCCN)c4ccccc4n3)cn2)CC1 [Example 93]
160	NCCCNc1cc(-c2cnn(CCN3CCCC3)c2)nc2ccccc12 [Example 100]
80	CNCCCCN(C)CCCNc1cc(-c2ccc(OC)cc2)nc2ccccc12 [Example 12, N^1-(3-((2-(4-Methoxyphenyl)quinolin-4-yl)amino)propyl)-N^1,N^4-dimethyl butane-1,4-diamine trihydrochloride]
1210	COc1ccc(-c2cc(NCCCN(C)Cc3ccc(N(C)C)nc3)c3ccccc3n2)cc1 [Example 28, N^1-((6-(dimethylamino)pyridin-3-yl)methyl)-N^3-(2-(4-methoxyphenyl)quinolin-4-yl)-N^1-methylpropane-1,3-diamine]
300	COc1ccc(-c2cc(NCCCNC3CCN(Cc4ccc(F)cc4)CC3)c3ccccc3n2)cc1 [Example 40, N^1-(1-(4-Fluorobenzyl)piperidin-4-yl)-N^3-(2-(4-methoxyphenyl)quinolin-4-yl)propane-1,3-diamine]
1570	NCCCNc1cc(C2=CCCCC2)nc2ccccc12 [Example 128]
80	COc1ccc(-c2cc(NCCCNCCCN)c3ccccc3n2)cc1 [Example 8, N-{3-[(3-Aminopropyl)amino]propyl}-2-(4-methoxyphenyl)quinolin-4-amine trihydrochloride]
1280	CN(C)CCCNc1cc(-c2ccc3occc3c2)nc2ccccc12 [Example 124]
180	COc1ccc(-c2cc(NC3CCN(C4CCC(N)CC4)CC3)c3ccccc3n2)cc1 (stereo not drawn) [Example 102]
220	CN(C)CCCNc1cc(-c2ccc(N3CCNCC3)cc2)nc2ccc(F)cc12 [Example 103, N-(3-(dimethylamino)propyl)-6-fluoro-2-(4-(piperazin-1-yl)phenyl)quinolin-4-amine]
1660	COc1ccc(-c2cc(NCCCN(C)C(=O)[C@H](C)N)c3ccccc3n2)cc1 [Example 129]
350	COc1ccc(-c2cc(NCCCN(C)CC3CCN(C)CC3)c3ccccc3n2)cc1 [Example 30, N^1-(2-(4-methoxyphenyl)quinolin-4-yl)-N^3-methyl-N^3-((1-methylpiperidin-4-yl)methyl)propane-1,3-diamine]
760	COc1ccc(-c2cc(NCCCNCCCNC(=O)OC(C)(C)C)c3ccccc3n2)cc1 [Example 6, tert-Butyl N-{3-[(3-{[2-(4-methoxyphenyl)quinolin-4yl]amino}propyl)amino]propyl}carbamate]
2070	COc1ccc(-c2cc(NCCCNCCC3CCCCN3C(=O)OC(C)(C)C)c3ccccc3n2)cc1 (stereo not drawn) [Example 44, tert-Butyl 2-(2-((3-((2-(4-methoxyphenyl)quinolin-4-yl)amino)propyl)amino)ethyl)piperidine-1-carboxylate]
